Assay results published in paper PMC8425032, “Functional characterization of a highly specific L-arabinose transporter from Trichoderma reesei” (Microbial Cell Factories, 2021).

Columns and labels:
Format in all cases: cell-based
[1] = molecular target: T1, Trire2_104072 (Trichoderma reesei, UniProt Q1EG32, H388P, form not given); test: inhibition of […]-L-arabinose uptake, yeast cells; conditions: 833 µM; fivefold excess over 0.167 mM labelled L-arabinose, pH 6.5, 28 °C
T1 construct: gene xlt1; full-length RUT-C30 version, yeast codon-optimised synthetic gene; no tag mentioned; P388H version XLT1 from plasmid B1687
T1 sequence (Q1EG32 entry or part of it H388P, form open): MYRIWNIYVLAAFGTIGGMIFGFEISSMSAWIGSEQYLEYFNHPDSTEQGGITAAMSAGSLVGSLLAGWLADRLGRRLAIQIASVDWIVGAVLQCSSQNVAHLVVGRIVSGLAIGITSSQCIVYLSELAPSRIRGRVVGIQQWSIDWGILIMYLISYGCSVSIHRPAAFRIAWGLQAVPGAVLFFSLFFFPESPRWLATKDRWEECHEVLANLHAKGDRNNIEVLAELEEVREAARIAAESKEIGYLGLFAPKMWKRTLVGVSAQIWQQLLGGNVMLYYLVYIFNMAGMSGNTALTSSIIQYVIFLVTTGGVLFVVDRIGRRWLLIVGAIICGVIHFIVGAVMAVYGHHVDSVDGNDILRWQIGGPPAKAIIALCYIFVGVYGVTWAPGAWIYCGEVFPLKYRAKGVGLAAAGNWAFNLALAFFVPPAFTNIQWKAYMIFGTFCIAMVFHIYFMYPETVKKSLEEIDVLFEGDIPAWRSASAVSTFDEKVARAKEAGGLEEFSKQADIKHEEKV

[2] = molecular target: T2, Trire2_104072 (Trichoderma reesei, UniProt Q1EG32); test: inhibition of […]-L-arabinose uptake, yeast cells; conditions: fivefold excess over 0.167 mM labelled L-arabinose, pH 6.5, 28 °C
T2 construct: gene xlt1; full-length RUT-C30 version, yeast codon-optimised synthetic gene; no tag mentioned; P388H version XLT1 from plasmid B1687
T2 sequence (Q1EG32 entry or part of it): as the sequence (Q1EG32 entry or part of it H388P, form open) above, with P388H counted along it

[3] = molecular target: T1, Trire2_104072; test: two-electrode voltage clamp, sugar-induced current, Xenopus oocytes; conditions: pH 5.5, -50 mV, sodium-free ND-96 buffer; proton symport
[4] = molecular target: T3, P. chrysogenum AraT (Penicillium rubens, UniProt B6HE12); test: […]-L-arabinose uptake, yeast cells; conditions: 0.167 mM L-arabinose at pH 6.5 and 5 mM at pH 4.5; 28 °C; labelled compound
T3 construct: gene Pc20g01790; no tag mentioned
T3 sequence (B6HE12 1-511): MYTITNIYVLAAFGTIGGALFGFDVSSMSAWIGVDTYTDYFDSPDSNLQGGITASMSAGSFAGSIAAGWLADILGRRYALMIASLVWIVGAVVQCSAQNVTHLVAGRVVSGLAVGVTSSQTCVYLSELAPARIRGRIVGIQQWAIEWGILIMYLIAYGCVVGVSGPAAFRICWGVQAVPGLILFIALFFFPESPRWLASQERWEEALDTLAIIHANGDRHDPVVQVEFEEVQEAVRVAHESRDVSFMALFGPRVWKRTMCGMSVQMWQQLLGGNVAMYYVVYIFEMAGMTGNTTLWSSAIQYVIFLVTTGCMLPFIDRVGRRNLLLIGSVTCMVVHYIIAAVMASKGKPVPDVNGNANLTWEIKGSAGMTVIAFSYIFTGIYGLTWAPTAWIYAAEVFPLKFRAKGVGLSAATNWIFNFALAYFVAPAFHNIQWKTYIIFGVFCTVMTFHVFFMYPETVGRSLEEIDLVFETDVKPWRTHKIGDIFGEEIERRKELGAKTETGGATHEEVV

[5] = molecular target: T4, A. thaliana STP7 (Arabidopsis thaliana, UniProt O04249); test: […]-L-arabinose uptake, yeast cells; conditions: 5 mM L-arabinose, sodium citrate pH 4.5, 28 °C; labelled compound
T4 construct: no tag mentioned
T4 sequence (O04249 1-513): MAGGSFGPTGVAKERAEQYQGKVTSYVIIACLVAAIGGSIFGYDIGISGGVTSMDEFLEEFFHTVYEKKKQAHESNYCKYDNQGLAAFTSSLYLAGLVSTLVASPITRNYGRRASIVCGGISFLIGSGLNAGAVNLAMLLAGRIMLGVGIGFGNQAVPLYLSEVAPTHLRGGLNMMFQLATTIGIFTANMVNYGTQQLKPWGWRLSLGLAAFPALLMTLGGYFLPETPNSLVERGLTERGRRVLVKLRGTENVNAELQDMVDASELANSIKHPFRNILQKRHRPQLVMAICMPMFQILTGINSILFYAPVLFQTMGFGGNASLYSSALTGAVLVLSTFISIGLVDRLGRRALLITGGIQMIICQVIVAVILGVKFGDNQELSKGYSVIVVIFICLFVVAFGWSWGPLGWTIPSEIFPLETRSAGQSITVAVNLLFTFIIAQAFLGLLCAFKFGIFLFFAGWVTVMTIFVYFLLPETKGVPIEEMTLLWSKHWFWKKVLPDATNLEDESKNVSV

SMILES	Inhibition of L-arabinose uptake by competing sugar (glucose in 22.1, xylose in 22.2) [1] [%]	% inhibition at 0.833 mM [2] [%]	Km [3] [mM]	14C-L-arabinose uptake, yeast cells [4]	14C-L-arabinose uptake, yeast cells [5]
OC1OC[C@@H](O)[C@H](O)[C@H]1O (stereo partly drawn) [D-xylose]	10.9±6.3	13.4±7.9	9.16 ± 3.35		
OC[C@H]1OC(O)[C@H](O)[C@@H](O)[C@@H]1O (stereo partly drawn) [D-glucose]	0±8.2	4.5±17.6			
OC1OC[C@H](O)[C@H](O)[C@H]1O (stereo partly drawn) [L-arabinose]			0.207 ± 0.079	XLT1 or P. chrysogenum AraT had significantly higher L-arabinose uptake rates than the control strain	The strain expressing A. thaliana STP7 had also significantly higher uptake
